Assay results as given in ChEMBL document CHEMBL1152794, “Synthesis and biological evaluation of a small molecule library of 3rd generation multidrug resistance modulators” (Bioorg Med Chem, 2009).

Target: ATP-dependent translocase ABCB1 (Homo sapiens, UniProt P08183)
Assay: Inhibition of P-glycoprotein-mediated multidrug resistance in adriamycin-resistant human A2780/ADR cells by calcein AM assay
Assay type: cell-based

Chain of ATP-dependent translocase ABCB1 (P08183 whole entry): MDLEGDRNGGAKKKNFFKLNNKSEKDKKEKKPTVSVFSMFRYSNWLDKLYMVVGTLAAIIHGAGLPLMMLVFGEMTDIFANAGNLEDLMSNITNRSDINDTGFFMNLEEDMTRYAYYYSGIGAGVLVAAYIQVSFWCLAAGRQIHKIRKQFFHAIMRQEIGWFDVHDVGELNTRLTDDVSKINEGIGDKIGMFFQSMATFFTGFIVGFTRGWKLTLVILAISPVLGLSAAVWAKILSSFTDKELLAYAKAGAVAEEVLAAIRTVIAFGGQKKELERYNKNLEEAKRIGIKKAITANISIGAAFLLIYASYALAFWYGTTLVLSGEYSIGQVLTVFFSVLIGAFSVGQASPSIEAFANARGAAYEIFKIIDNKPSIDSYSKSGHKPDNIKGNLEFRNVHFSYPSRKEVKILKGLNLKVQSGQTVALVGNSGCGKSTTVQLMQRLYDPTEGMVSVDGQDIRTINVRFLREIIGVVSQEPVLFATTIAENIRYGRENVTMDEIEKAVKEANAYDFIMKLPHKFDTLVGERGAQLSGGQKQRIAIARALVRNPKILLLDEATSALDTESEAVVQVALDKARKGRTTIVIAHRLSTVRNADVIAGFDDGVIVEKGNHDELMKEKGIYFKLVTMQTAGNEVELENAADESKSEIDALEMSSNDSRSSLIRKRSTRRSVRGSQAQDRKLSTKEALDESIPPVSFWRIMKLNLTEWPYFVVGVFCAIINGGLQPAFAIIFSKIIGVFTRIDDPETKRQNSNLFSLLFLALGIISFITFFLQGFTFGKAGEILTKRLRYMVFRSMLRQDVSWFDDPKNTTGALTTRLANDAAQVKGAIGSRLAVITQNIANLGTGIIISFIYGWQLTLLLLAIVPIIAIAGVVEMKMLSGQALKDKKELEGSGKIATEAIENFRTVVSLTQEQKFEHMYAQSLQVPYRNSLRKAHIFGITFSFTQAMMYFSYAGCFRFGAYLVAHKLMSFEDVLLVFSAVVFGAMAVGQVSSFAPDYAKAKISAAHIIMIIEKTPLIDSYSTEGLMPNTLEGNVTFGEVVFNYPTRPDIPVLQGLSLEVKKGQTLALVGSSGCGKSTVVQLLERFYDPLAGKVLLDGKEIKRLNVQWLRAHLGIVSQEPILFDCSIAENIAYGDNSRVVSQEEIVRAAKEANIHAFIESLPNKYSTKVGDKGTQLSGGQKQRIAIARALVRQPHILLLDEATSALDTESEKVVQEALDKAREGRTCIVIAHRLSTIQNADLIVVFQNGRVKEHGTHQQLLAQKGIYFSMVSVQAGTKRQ

Structure (SMILES) | IC50 [nM]
O=C(Nc1ccc(CCN2CCc3ccccc3C2)cc1)c1ccccc1[N+](=O)[O-] | 14000
COc1cc2c(cc1OC)CN(CCc1ccc(NC(=O)c3ccnc4ccccc34)cc1)CC2 | 4700
COc1cc2c(cc1OC)CN(CCc1ccc(NC(=O)c3cnc4ccccc4n3)cc1)CC2 | 470
COc1cc2c(cc1OC)CN(CCc1ccc(NC(=O)c3cnc4ccccc4c3)cc1)CC2 | 570
COc1cc2c(cc1OC)CN(CCc1ccc(NC(=O)c3cccc(Br)c3)cc1)CC2 | 1800
COc1cc2c(cc1OC)CN(CCc1ccc(NC(=O)c3ccc4ccccc4c3)cc1)CC2 | 630
O=C(Nc1ccc(CCN2CCc3ccccc3C2)cc1)c1ccc([N+](=O)[O-])cc1 | 5600
COc1cc2c(cc1OC)CN(CCc1ccc(NC(=O)c3ccc(N)cc3)cc1)CC2 | 4400
COc1cc2c(cc1OC)CN(CCc1ccc(NC(=O)c3cc(OC)c(OC)cc3NC(=O)c3cnc4ccccc4c3)cc1)CC2 | 78
COc1cc2c(cc1OC)CN(CCc1ccc(NC(=O)c3ccccc3Br)cc1)CC2 | 3300
COc1cc2c(cc1OC)CN(CCc1ccc(NC(=O)c3ccc4ncccc4c3)cc1)CC2 | 650
COc1cc2c(cc1OC)CN(CCc1ccc(NC(=O)c3cccnc3)cc1)CC2 | 4800
Nc1ccc(C(=O)Nc2ccc(CCN3CCc4ccccc4C3)cc2)cc1 | 12000
COc1cc2c(cc1OC)CN(CCc1ccc(NC(=O)c3ccccc3N)cc1)CC2 | 8500
COc1cc2c(cc1OC)CN(CCc1ccc(NC(=O)c3ccccc3[N+](=O)[O-])cc1)CC2 | 5400
COc1cc2c(cc1OC)CN(CCc1ccc(NC(=O)c3ccccc3)cc1)CC2 | 4100
COc1cc(/C=C/C(=O)Nc2ccc(CCN3CCc4cc(OC)c(OC)cc4C3)cc2)c([N+](=O)[O-])cc1OC | 1500

Structure (SMILES) | IC50 [nM]
COc1cc2c(cc1OC)CN(CCc1ccc(NC(=O)c3ccc4ccccc4n3)cc1)CC2 | 850
COc1cc2c(cc1OC)CN(CCc1ccc(NC(=O)Nc3ccccc3N)cc1)CC2 | 21000
Nc1ccccc1NC(=O)Nc1ccc(CCN2CCc3ccccc3C2)cc1 | 19000
COc1cc2c(cc1OC)CN(CCc1ccc(NC(=O)COc3ccccc3N)cc1)CC2 | 3400
COc1cc2c(cc1OC)CN(CCc1ccc(NC(=O)/C=C/c3ccc(Cl)cc3)cc1)CC2 | 670
COc1cc2c(cc1OC)CN(CCc1ccc(NC(=O)COc3ccccc3)cc1)CC2 | 3100
COc1cc2c(cc1OC)CN(CCc1ccc(NC(=O)/C=C/c3ccccc3[N+](=O)[O-])cc1)CC2 | 1100
COc1cc2c(cc1OC)CN(CCc1ccc(NC(=O)c3ccc4c(c3)OCO4)cc1)CC2 | 2100
COc1cc2c(cc1OC)CN(CCc1ccc(NC(=O)Nc3cccc(N)c3)cc1)CC2 | 14000
COc1cc2c(cc1OC)CN(CCc1ccc(NC(=O)Nc3ccc(N)cc3)cc1)CC2 | 31000
COc1cc2c(cc1OC)CN(CCc1ccc(NC(=O)Nc3ccc([N+](=O)[O-])cc3)cc1)CC2 | 1500
COc1cc2c(cc1OC)CN(CCc1ccc(NC(=O)Nc3ccccc3[N+](=O)[O-])cc1)CC2 | 330
O=C(Nc1ccc(CCN2CCc3ccccc3C2)cc1)Nc1ccccc1[N+](=O)[O-] | 770
COc1cc2c(cc1OC)CN(CCc1ccc(NC(=O)COc3ccccc3[N+](=O)[O-])cc1)CC2 | 220
COc1cc2c(cc1OC)CN(CCc1ccc(NC(=O)Nc3cccc([N+](=O)[O-])c3)cc1)CC2 | 670
COc1cc2c(cc1OC)CN(CCc1ccc(NC(=O)/C=C/c3ccccc3)cc1)CC2 | 1400
COc1cc2c(cc1OC)CN(CCc1ccc(NC(=O)c3ccc([N+](=O)[O-])cc3)cc1)CC2 | 1400
